Data on 20 molecules can be found in ChEMBL document CHEMBL5107966, “Cascade synthetic strategies opening access to medicinal-relevant aliphatic 3- and 4-membered N-heterocyclic scaffolds” (Eur J Med Chem, 2022).

For assay [1], the system named is RAW264.7. The assay can be described thus: Cytotoxicity against mouse RAW264.7 by WST-1 vital dye reagent method. The class given is functional, cell-based.
Assay [2] has as its system RAW264.7. The experiment in a line: Inhibition of NO release in mouse RAW264.7 incubated for 15 mins by fluoroscence-luminescence reader infinite M200 Pro analysis. The class given is functional, cell-based. The conditions noted are these: RAW264.7, 0.25 h.
Assay [3] concerns HCT-116. The assay can be described thus: Cytotoxicity against human HCT-116 cells assessed as cell viability incubated for 24 hrs by MTT assay. The class given is functional, cell-based. Particulars: HCT-116, 24 h.
In a further assay the test system is Escherichia coli. The experiment in a line: Antimicrobial activity against Escherichia coli ATCC 8739. It is filed as functional.
Assay [4] deals with Staphylococcus aureus. The experiment in a line: Antimicrobial activity against Staphylococcus aureus ATCC 29213. It is filed as functional.
For another assay, the system named is Aspergillus fumigatus. The experiment in a line: Antimicrobial activity against Aspergillus fumigatus NCIM 2081. The class given is functional.
Another assay has as its system Candida albicans. The assay can be described thus: Antimicrobial activity against Candida albicans NCIM 2087. The class given is functional.
For assay [5], the system named is Pseudomonas aeruginosa. The assay can be described thus: Antimicrobial activity against Pseudomonas aeruginosa MCCB 0035. It is filed as functional.
For a further assay, the system named is Aspergillus niger. The experiment in a line: Antimicrobial activity against Aspergillus niger […]. It is filed as functional.
The subject of a further assay is Enterococcus faecium. The experiment in a line: Antimicrobial activity against Enterococcus faecium incubated for 18 to 24 hrs. Particulars: time 18-24 hrs. It is filed as functional.
For the next assay, the system named is Enterobacter cloacae. The assay can be described thus: Antimicrobial activity against Enterobacter cloacae incubated for 18 to 24 hrs. The class given is functional. Particulars: time 18-24 hrs.
Assay [6] deals with Pseudomonas aeruginosa. The experiment in a line: Antimicrobial activity against Pseudomonas aeruginosa incubated for 18 to 24 hrs. Particulars: time 18-24 hrs. The class given is functional.
In assay [7] the test system is Staphylococcus aureus. The experiment in a line: Antimicrobial activity against Staphylococcus aureus incubated for 18 to 24 hrs. It is filed as functional. The conditions noted are these: time 18-24 hrs.
The subject of a further assay is A549. The assay can be described thus: Cytotoxicity against human A549 cells.
A further assay relates to A2780. The experiment in a line: Cytotoxicity against human A2780 cells. It is filed as functional, cell-based.
The subject of assay [8] is HCT-116. The experiment in a line: Cytotoxicity against human HCT-116 cells. It is filed as functional, cell-based.
In the next assay the test system is HeLa. The experiment in a line: Cytotoxicity against human HeLa cells.
For a further assay, the system named is A-431. The experiment in a line: Antiproliferative activity against human A-431 cells assessed as reduction in cell viability incubated for 72 hrs by CCK-8 assay. It is filed as functional, cell-based. The conditions noted are these: A-431, 72 h.
The subject of assay [9] is HCT-116. The assay can be described thus: cells. The conditions noted are these: Homo sapiens, HCT-116, 72 h.
In a further assay the test system is U-251. The assay can be described thus: Antiproliferative activity against human U-251 cells assessed as reduction in cell viability incubated for 72 hrs by CCK-8 assay. The class given is functional, cell-based. The conditions noted are these: U-251, 72 h.
Another assay deals with HepG2. The experiment in a line: Antiproliferative activity against human HepG2 cells assessed as reduction in cell viability incubated for 72 hrs by CCK-8 assay. The class given is functional, cell-based. Particulars: HepG2, 72 h.

Values after ≈ are worked out from the molar mass of the structure shown.

With `O=C1[C@@H](Oc2ccc(Cl)cc2)[C@@H](c2ccccc2[N+](=O)[O-])N1N1CCOCC1`, the IC50 in the assay with RAW264.7 [1] was more than 500 µM; with RAW264.7 [2] it was 7.92 µM.
In the case of `CCOP(=O)(O)C1CN1C(C)c1ccc2ccccc2c1` (configuration not stated), the IC50 with HCT-116 [3] is 12.3 µM.
As to `Cc1ccc(S(=O)(=O)N2C(=O)C(Cl)[C@H]2c2cccc(F)c2)cc1` (some centres not stated), the MIC was determined as 2 µg/mL (≈ 5.65 µM) with Escherichia coli; 8 µg/mL (≈ 22.6 µM) in the assay with Staphylococcus aureus [4]; 16 µg/mL (≈ 45.2 µM) against Aspergillus fumigatus; 8 µg/mL (≈ 22.6 µM) with Candida albicans; 16 µg/mL (≈ 45.2 µM) in the assay with Pseudomonas aeruginosa [5]; 16 µg/mL (≈ 45.2 µM) against Aspergillus niger.
For `O=C(O)C1N=C1c1ccccc1` (configuration not stated), the MIC in the assay on Enterococcus faecium, against Enterobacter cloacae, in the assay with Pseudomonas aeruginosa [6] and against Staphylococcus aureus [7] was 9 µg/mL (≈ 55.8 µM) throughout.
As for `Cc1ccc(C(OC(=O)C2N=C2c2ccccc2Br)C(=O)NC(C)(C)C)cc1` (configuration not stated), the MIC in the assay on Enterococcus faecium stood at 16 µg/mL (≈ 36.1 µM); in the assay on Enterobacter cloacae, 75 µg/mL (≈ 169 µM); against Pseudomonas aeruginosa [6], 150 µg/mL (≈ 338 µM); in the assay with Staphylococcus aureus [7], 16 µg/mL (≈ 36.1 µM).
For `Cc1cc(NS(=O)(=O)c2ccc(N)cc2)no1` [SULFAMETHOXAZOLE], the MIC in the assay on Enterococcus faecium worked out at 4 µg/mL (≈ 15.8 µM); against Enterobacter cloacae it was 8 µg/mL (≈ 31.6 µM); in the assay with Pseudomonas aeruginosa [6], 8 µg/mL (≈ 31.6 µM); with Staphylococcus aureus [7] it was 16 µg/mL (≈ 63.2 µM).
`COc1ccc(C2NC2c2cc(OC)c(OC)c(OC)c2)cc1` (configuration not stated): the IC50 with A549 was 8.74 µM; in the assay with A2780, 4.68 µM; in the assay with HCT-116 [8] it was 5.44 µM; in the assay on HeLa, 4.93 µM.
Consider `CC1(C)S[C@@H]2[C@H](NC(=O)[C@H](N)c3ccccc3)C(=O)N2[C@H]1C(=O)O` [AMPICILLIN], for which the MIC in the assay on Escherichia coli was found to be 1 µg/mL (≈ 2.86 µM); against Staphylococcus aureus [4], 2 µg/mL (≈ 5.72 µM); against Pseudomonas aeruginosa [5], 4 µg/mL (≈ 11.4 µM).
As to `Cc1ccc(S(=O)(=O)N2C(=O)C(Cl)[C@H]2c2ccc(F)cc2)cc1` (some centres not stated), the MIC in the assay on Escherichia coli was determined as 0.5 µg/mL (≈ 1.41 µM); in the assay with Staphylococcus aureus [4], 1 µg/mL (≈ 2.83 µM); in the assay on Aspergillus fumigatus, 2 µg/mL (≈ 5.65 µM); with Candida albicans it was 2 µg/mL (≈ 5.65 µM); with Pseudomonas aeruginosa [5], 4 µg/mL (≈ 11.3 µM); with Aspergillus niger, 8 µg/mL (≈ 22.6 µM).
Consider `CCOP(=O)(O)C1CN1C1CCCCC1` (configuration not stated), for which the IC50 in the assay on HCT-116 [3] came out at 16.1 µM.
On the same count and under the same terms, with `CC[C@@]1(O)C(=O)OCc2c1cc1n(c2=O)Cc2cc3ccccc3nc2-1` [CAMPTOTHECIN] the figure was 0.00201 µM.
For the molecule `COc1cc(-c2cc(C3CN(c4cccc(C#N)n4)C3)ccc2OC)ccn1`, the EC50 in the assay with A-431 is 0.7 µM; in the assay on HCT-116 [9], 15 µM; with U-251, 1.2 µM; in the assay on HepG2 it was 0.46 µM.
Regarding `O=C1[C@@H](Oc2ccc(Cl)cc2Cl)[C@@H](c2ccc([N+](=O)[O-])cc2)N1CCCN1CCOCC1`, the IC50 in the assay with RAW264.7 [1] was 291 µM; in the assay with RAW264.7 [2], 4.14 µM.
Turning to `CCOP(=O)(O)C1CN1Cc1ccccc1` (configuration not stated), the IC50 in the assay with HCT-116 [3] amounted to 7.79 µM.
Consider `Cc1ccc(S(=O)(=O)N2C(=O)C(Cl)[C@H]2c2ccccc2F)cc1` (some centres not stated), for which the MIC with Escherichia coli came to 4 µg/mL (≈ 11.3 µM); with Staphylococcus aureus [4], 4 µg/mL (≈ 11.3 µM); against Aspergillus fumigatus it was 4 µg/mL (≈ 11.3 µM); in the assay with Candida albicans, 16 µg/mL (≈ 45.2 µM); in the assay with Pseudomonas aeruginosa [5], 32 µg/mL (≈ 90.4 µM); with Aspergillus niger, 16 µg/mL (≈ 45.2 µM).
With `COc1cc([C@@H]2c3cc4c(cc3[C@@H](O[C@@H]3O[C@@H]5CO[C@@H](C)O[C@H]5[C@H](O)[C@H]3O)[C@H]3COC(=O)[C@H]23)OCO4)cc(OC)c1O` [ETOPOSIDE], the IC50 with HCT-116 [3] worked out at 26.1 µM.
In the case of `Nc1cccc([C@@H]2[C@H](Oc3ccc4ccccc4c3)C(=O)N2CCCN2CCOCC2)c1`, the IC50 is more than 500 µM with RAW264.7 [1] and 5.73 µM in the assay on RAW264.7 [2].
`COc1ccc(C2CN(c3cccc(C#N)n3)C2)cc1-c1ccnc(N)c1`: the concentration for a half-maximal effect (EC50) was 0.36 µM in the assay on HCT-116 [9], 0.03 µM in the assay on U-251 and 5.66 µM with HepG2.
In the case of `COc1cccc2c1C(=O)c1c(O)c3c(c(O)c1C2=O)C[C@@](O)(C(=O)CO)C[C@@H]3O[C@H]1C[C@H](N)[C@H](O)[C@H](C)O1` [DOXORUBICIN], the EC50 amounted to 0.7 µM with A-431, 0.16 µM with HCT-116 [9], 0.07 µM in the assay on U-251 and 0.67 µM in the assay with HepG2.
As for `Clc1ccccc1C(c1ccccc1)(c1ccccc1)n1ccnc1` [CLOTRIMAZOLE], the MIC with Aspergillus fumigatus is 1 µg/mL (≈ 2.9 µM); with Candida albicans it was 4 µg/mL (≈ 11.6 µM); against Aspergillus niger, 16 µg/mL (≈ 46.4 µM).
